Calls of active or inactive are those of the source. No cut-off for these calls is given here.
How the values were obtained:
[1] = tested on: MT2; assay: Cytotoxicity against human MT2 cells after 5 days by MTT assay; assay type: cell-based; details: MT2, 120 h
[2] = tested on: Human immunodeficiency virus 1; assay: Antiviral activity against HIV-1 infected un MT2 cells assessed as virus-induced cytopathicity after 5 days by MTT assay; assay type: functional, organism-based; details: Human immunodeficiency virus 1, MT2, 120 h
[3] = target: Human immunodeficiency virus type 1 reverse transcriptase (Human immunodeficiency virus 1) (UniProt Q72547); assay: Inhibition of HIV-1 RT assessed as inhibition of annealing of D23/D36 primer/template at 150 uM by polyacrylamide denaturing gel-based incorporation assay

inhibition [3] | Structure (SMILES) | IC50 [1] [µM] | EC50 [2] [µM]
 | CC(C)=CCN1Cc2c(OCCOCCOCCOCCOCCOCCOCCOCCOC(=O)CCc3cn([C@H]4C=C[C@@H](CO)O4)c(=O)[nH]c3=O)ccc3[nH]c(=S)n(c23)C[C@@H]1C | > 100 | 120
 | Cc1cn([C@H]2C=C[C@@H](CO)O2)c(=O)[nH]c1=O [STAVUDINE] | > 100 | 2.2
 | CC(C)=CCN1Cc2c(OCCOCCOCCOCCOCCOCCOCCOCCO)ccc([N+](=O)[O-])c2NC[C@@H]1C | > 100 | 27
inactive | CC(C)=CCN1Cc2c(OCCOCCOCCOCCOCCOCCn3c(=O)ccn([C@H]4C=C[C@@H](COP(=O)(O)OP(=O)(O)OP(=O)(O)O)O4)c3=O)ccc3[nH]c(=S)n(c23)C[C@@H]1C |  | 
 | CC(C)=CCN1Cc2c(OCCOCCOCCOCCOC(=O)CCc3cn([C@H]4C=C[C@@H](CO)O4)c(=O)[nH]c3=O)ccc3[nH]c(=S)n(c23)C[C@@H]1C | > 100 | 45
 | CC(C)=CCN1Cc2c(OCCOCCOCCOCCOCCOCCn3c(=O)ccn([C@H]4C=C[C@@H](CO)O4)c3=O)ccc3[nH]c(=S)n(c23)C[C@@H]1C | 38 | 20
 | CC(C)=CCN1Cc2c(OCCOCCOCCOCCOCCOCCOC(=O)CCc3cn([C@H]4C=C[C@@H](CO)O4)c(=O)[nH]c3=O)ccc3[nH]c(=S)n(c23)C[C@@H]1C | > 100 | 100

From ChEMBL document CHEMBL2346508, “Bifunctional inhibition of HIV-1 reverse transcriptase: a first step in designing a bifunctional triphosphate” (Bioorg Med Chem Lett, 2013)
